Experimental findings from patent US20230159510A1, “NOVEL PRMT5 INHIBITORS” (AMGEN INC., priority 2020, published 2023) are described below.

Assay [1] concerns the target T1, PRMT5/MEP50 (Homo sapiens, UniProt O14744). Put plainly: MTase-Glo methyl transferase assay, Method B (FL-Histone H2A, 1 µM MTA, 1 h pre-incubation). It is filed as biochemical. Also noted: purchased Reaction Biology Corp RD-11-292. To be noted: read-out: PRMT5 MTase Glo Ki (nM, Meth. B). How it is done:
Method B: The PRMT5 inhibitory activity of test compounds was determined using the MTase-Glo™ assay (Promega), which monitors the product (S-adenosyl homocysteine or SAH) of methyltransferase reactions. The PRMT5 MTase-Glo assay was conducted in a 384-well white ProxiPlate (PerkinElmer) in a total volume of 16 µL. The PRMT5 enzymatic reaction (in 8 µL) contained 4 nM PRMT5/MEP50 (Reaction Biology Corp, catalog no.: RD-11-292), 5 µM S-adenosyl methionine (SAM, Promega), 2.5 µM FL-Histone H2A (BPS Bioscience, catalog no.: 52021), 1 µM 5′-methylthioadenosine (MTA, Sigma) and ½ log serially diluted compounds in a reaction buffer of 50 mM Tris (pH 8.0), 50 mM NaCl, 0.01% Tween 20, 0.01% BSA, and 1 mM TCEP. Test compounds were pre-incubated with PRMT5/MEP50, SAM, and MTA for 1 hour before addition of FL-Histone H2A to initiate the PRMT5 reaction. The reaction was allowed to proceed for 20 hours at room temperature and was then terminated by addition of 1 µL of 9X MTase-Glo™ Reagent (Promega). After a 30-minute incubation at room temperature, 8 µL of MTase-Glo™ Detection Solution (Promega) was added and the plate was incubated at room temperature for an additional 30 minutes. The light signal corresponding to the amount of SAH produced by the PRMT5 reaction was subsequently measured using an Envision multimode reader (PerkinElmer). IC50 and KI values were obtained by analyzing dose-response curves using GraphPad Prism®.
Target sequence in this assay (O14744 2-637 limits assumed): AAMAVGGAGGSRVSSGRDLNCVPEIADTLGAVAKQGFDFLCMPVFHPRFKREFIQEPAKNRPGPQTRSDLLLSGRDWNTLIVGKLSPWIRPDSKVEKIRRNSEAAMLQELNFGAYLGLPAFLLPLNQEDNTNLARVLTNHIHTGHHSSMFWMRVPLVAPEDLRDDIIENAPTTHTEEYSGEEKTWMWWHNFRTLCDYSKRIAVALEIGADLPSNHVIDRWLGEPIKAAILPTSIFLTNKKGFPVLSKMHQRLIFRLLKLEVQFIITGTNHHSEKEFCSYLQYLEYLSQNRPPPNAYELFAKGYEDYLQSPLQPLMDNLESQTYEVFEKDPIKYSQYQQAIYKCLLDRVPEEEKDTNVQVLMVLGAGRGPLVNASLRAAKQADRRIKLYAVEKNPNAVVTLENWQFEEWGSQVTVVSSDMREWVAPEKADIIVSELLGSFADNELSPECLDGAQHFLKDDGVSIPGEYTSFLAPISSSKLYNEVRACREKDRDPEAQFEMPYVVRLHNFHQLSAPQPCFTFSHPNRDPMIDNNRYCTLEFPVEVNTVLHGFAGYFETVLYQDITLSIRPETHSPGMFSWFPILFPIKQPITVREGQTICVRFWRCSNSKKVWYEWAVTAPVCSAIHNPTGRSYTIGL
Target sequence in this assay (Q9BQA1 2-342 partner limits assumed): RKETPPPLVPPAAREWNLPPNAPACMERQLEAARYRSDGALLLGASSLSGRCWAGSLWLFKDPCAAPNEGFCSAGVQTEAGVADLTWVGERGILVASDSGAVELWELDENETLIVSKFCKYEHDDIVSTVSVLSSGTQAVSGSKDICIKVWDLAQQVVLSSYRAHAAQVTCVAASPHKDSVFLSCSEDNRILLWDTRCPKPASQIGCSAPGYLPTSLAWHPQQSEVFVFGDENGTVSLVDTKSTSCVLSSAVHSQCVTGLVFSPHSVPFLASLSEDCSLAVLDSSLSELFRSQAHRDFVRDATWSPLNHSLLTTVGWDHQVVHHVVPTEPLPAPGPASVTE

The test system of the next assay is HCT116 WT cells. Put plainly: HCT116 proliferation assay, WT cells (CellTiter-Glo, 6 days). It is filed as cell-based. As to conditions: Homo sapiens, HCT-116, 144 h, read-out: Prolif_HCT116-WT IC50. The method in brief:
(§1)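 Compound titrations (top dose 1 or 10 µM, 1:3 dilution, 8 or 9 concentrations) and a DMSO control were applied to cells cultured overnight beforehand in RPMI 1640 with 10% FBS at 37° C, 5% CO2; viability was scored from luminescence.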

The target of assay [2] is T1, PRMT5/MEP50. Put plainly: MTase-Glo methyl transferase assay, Method A (Histone H4 peptide, 1 µM MTA, 24 h pre-incubation). It is filed as biochemical. Also noted: made in house. As to conditions: read-out: PRMT5 MTase Glo Ki (nM, Meth. A). The method, boiled down:
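Luminescent SAH detection (MTase-Glo) after a 2 h room-temperature methylation of 1 µM biotinylated H4 (1-21) peptide by 10 nM PRMT5/MEP50 with 5 µM SAM, in 50 mM Tris pH 8.0.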
Target sequence in this assay (O14744 whole entry): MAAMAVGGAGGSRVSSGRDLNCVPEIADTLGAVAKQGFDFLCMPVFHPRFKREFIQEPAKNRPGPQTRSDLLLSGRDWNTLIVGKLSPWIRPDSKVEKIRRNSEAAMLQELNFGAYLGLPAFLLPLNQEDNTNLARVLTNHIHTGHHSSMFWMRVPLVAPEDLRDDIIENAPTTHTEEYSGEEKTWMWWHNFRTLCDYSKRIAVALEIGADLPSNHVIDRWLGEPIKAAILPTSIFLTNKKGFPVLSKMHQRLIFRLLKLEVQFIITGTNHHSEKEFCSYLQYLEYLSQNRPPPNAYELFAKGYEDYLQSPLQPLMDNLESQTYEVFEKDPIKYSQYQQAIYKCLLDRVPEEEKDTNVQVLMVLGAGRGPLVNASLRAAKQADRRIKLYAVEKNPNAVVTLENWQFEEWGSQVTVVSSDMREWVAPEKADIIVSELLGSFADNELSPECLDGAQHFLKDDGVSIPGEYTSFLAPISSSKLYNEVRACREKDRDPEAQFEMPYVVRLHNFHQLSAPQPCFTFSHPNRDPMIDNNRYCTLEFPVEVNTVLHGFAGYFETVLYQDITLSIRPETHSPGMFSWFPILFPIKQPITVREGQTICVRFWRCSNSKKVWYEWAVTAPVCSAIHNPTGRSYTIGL
Target sequence in this assay (Q9BQA1 whole entry partner): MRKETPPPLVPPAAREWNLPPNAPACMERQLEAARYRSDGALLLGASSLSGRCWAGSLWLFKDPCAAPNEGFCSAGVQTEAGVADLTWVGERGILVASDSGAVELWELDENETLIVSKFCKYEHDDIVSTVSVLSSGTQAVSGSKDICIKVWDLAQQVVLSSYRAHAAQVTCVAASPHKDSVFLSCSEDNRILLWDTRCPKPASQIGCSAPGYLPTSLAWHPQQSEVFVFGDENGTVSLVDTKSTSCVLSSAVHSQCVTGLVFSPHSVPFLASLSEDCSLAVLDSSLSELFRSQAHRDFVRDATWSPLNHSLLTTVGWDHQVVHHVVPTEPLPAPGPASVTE

For a further assay, the system named is HCT116 MTAP null cells. Description: HCT116 proliferation assay, MTAP null cells (CellTiter-Glo, 6 days). In kind it is cell-based. As to conditions: 144 h, read-out: Protif_ HCT116-MTAP null IC50. The method in brief: as §1
A general note: ATP-based viability assays read luminescence as a measure of living cells.

Read-outs that look alike come from different tables or passages of the source.

As to `Cc1cc2cc(C(=O)N(Cc3ccc(C(F)(F)F)cn3)C3CCCC3C#N)cnc2nc1N` (stereo not drawn) [Example 700, 7-amino-N-(2-cyanocyclopentyl)-6-methyl-N-[[5-(trifluoromethyl)-2-pyridyl]methyl]-1,8-naphthyridine-3-carboxamide], the Ki – broadly, a measure of affinity in units of concentration, obtained from inhibition or displacement – on PRMT5/MEP50 [1] is 38.1 nM.
For `Cc1cc2cc(C(=O)N(Cc3cncnc3)Cc3ccc(C(F)(F)F)cn3)ccc2nc1N` [Example 626, 2-amino-3-methyl-N-(pyrimidin-5-ylmethyl)-N-((5-(trifluoromethyl)pyridin-2-yl)methyl)quinoline-6-carboxamide], on PRMT5/MEP50 [1], the inhibition constant (Ki) worked out at 42.7 nM.
For the compound `Cc1cc2cc(C(=O)N(Cc3ccc(C(F)(F)F)cn3)C3CCCC3C#N)ncc2nc1N` (stereo not drawn) [Example 701, 2-amino-N-(2-cyanocyclopentyl)-3-methyl-N-[[5-(trifluoromethyl)-2-pyridyl]methyl]-1,7-naphthyridine-6-carboxamide], the Ki at PRMT5/MEP50 [1] was 37.2 nM.
As for `Cc1cc2cc(C(=O)N(Cc3ncccc3F)[C@H](C)c3ccc(C(F)(F)F)cn3)ccc2nc1N` [Example 393, 2-amino-N-((3-fluoro-2-pyridinyl)methyl)-3-methyl-N-((1R)-1-(5-(trifluoromethyl)-2-pyridinyl)ethyl)-6-quinolinecarboxamide], the IC50 (in general, the concentration that gives 50% inhibition) in the assay on HCT116 WT cells was found to be 8210 nM; in the assay on HCT116 MTAP null cells (HCT116-MTAP null) it was 342 nM. Also, the Ki at PRMT5/MEP50 [2] stood at 0.22 nM.
Take `[2H]C([2H])([2H])c1cc2cc(C(=O)N(Cc3ccc(C(F)(F)F)cn3)[C@H](C)c3ncccc3F)ccc2nc1N` [Example 440, (R)-2-amino-N-(1-(3-fluoropyridin-2-yl)ethyl)-3-(methyl-d3)-N-((5-(trifluoromethyl)pyridin-2-yl)methyl)quinoline-6-carboxamide]: the IC50 amounted to 690 nM in the assay on HCT116 WT cells and 38 nM in the assay with HCT116 MTAP null cells. Moreover, on PRMT5/MEP50 [2], the Ki is less than 0.1 nM.
Regarding `Cc1cc2cc(C(=O)N(Cc3ccc(C(=O)N(C)C)cn3)Cc3ncccc3F)ccc2nc1N` [Example 560, 2-amino-N-((5-(dimethylcarbamoyl)-2-pyridinyl)methyl)-N-((3-fluoro-2-pyridinyl)methyl)-3-methyl-6-quinolinecarboxamide], the IC50 with HCT116 WT cells was greater than 10000 nM; in the assay with HCT116 MTAP null cells (HCT116-MTAP null), 623 nM. Besides, on PRMT5/MEP50 [2], the Ki was found to be 0.2 nM.
`CC[C@H](c1ncccn1)N(Cc1ccc(C(F)F)cn1)C(=O)c1ccc2nc(N)c(Br)cc2c1` (single isomer, unassigned) [Example 501]: the IC50 in the assay with HCT116 WT cells came to 5920 nM; in the assay on HCT116 MTAP null cells (HCT116-MTAP null) it was 107 nM. Also, at PRMT5/MEP50 [2], the Ki is 0.02 nM.
On the same counts, the results for `Cc1cc2cc(C(=O)N(Cc3ccc(C(F)(F)F)cn3)CC(F)(F)F)ccc2nc1N` [Example 442, 2-amino-3-methyl-N-(2,2,2-trifluoroethyl)-N-((5-(trifluoromethyl)-2-pyridinyl)methyl)-6-quinolinecarboxamide] are greater than 10000 nM, 969 nM and 6.87 nM.
For `Cc1cc2cc(C(=O)N(Cc3ccc(C(F)F)cn3)[C@@H]3CCC[C@H]3O)ccc2nc1N` [Example 364, 2-amino-N-((5-(difluoromethyl)pyridin-2-yl)methyl)-N-((1R,2R)-2-hydroxycyclopentyl)-3-methylquinoline-6-carboxamide], the figures for the IC50 in the assay on HCT116 WT cells and in the assay with HCT116 MTAP null cells (HCT116-MTAP null) were 6200 nM and 227 nM, respectively. In addition, on PRMT5/MEP50 [2], the Ki was determined as 0.18 nM.
On the same counts, the results for `CC[C@H](c1ncccn1)N(Cc1ccc(C(F)(F)F)cn1)C(=O)c1cc2cc(Br)c(N)nc2cn1` (single isomer, unassigned) [Example 499] are greater than 10000 nM, 251 nM and 0.18 nM.
As for `Cc1cc2cc(C(=O)N(Cc3ccc(C#N)cn3)[C@H](C)c3ncccn3)c(Cl)cc2nc1N` [Example 438, 2-amino-7-chloro-N-((5-cyano-2-pyridinyl)methyl)-3-methyl-N-((1R)-1-(2-pyrimidinyl)ethyl)-6-quinolinecarboxamide], the half-maximal inhibitory concentration (IC50) with HCT116 WT cells is 8790 nM; in the assay on HCT116 MTAP null cells (HCT116-MTAP null), 368 nM. At PRMT5/MEP50 [2], the Ki amounted to 0.76 nM.
For `C[C@H](c1ncccn1)N(Cc1ccc(OC2COC2)cn1)C(=O)c1cnc2nc(N)c(Br)cc2c1` [Example 426, 7-amino-6-bromo-N-((5-(3-oxetanyloxy)-2-pyridinyl)methyl)-N-((1R)-1-(2-pyrimidinyl)ethyl)-1,8-naphthyridine-3-carboxamide], the IC50 with HCT116 WT cells is greater than 10000 nM; with HCT116 MTAP null cells (HCT116-MTAP null), 964 nM. Further, the Ki on PRMT5/MEP50 [2] was determined as 0.47 nM.
With `Cc1cc2cc(C(=O)N(Cc3ccncn3)Cc3ccc(C(F)(F)F)cn3)ccc2nc1N` [Example 335, 2-amino-3-methyl-N-(4-pyrimidinylmethyl)-N-((5-(trifluoromethyl)-2-pyridinyl)methyl)-6-quinolinecarboxamide], the IC50 was greater than 10000 nM with HCT116 WT cells and 727 nM with HCT116 MTAP null cells (HCT116-MTAP null). Moreover, the Ki at PRMT5/MEP50 [2] worked out at 0.73 nM.
Take `Cc1cc([C@@H](C)N(Cc2ccc(C(F)(F)F)cn2)C(=O)c2ccc3nc(N)c(C)cc3c2)no1` [Example 392, 2-amino-3-methyl-N-((1R)-1-(5-methyl-1,2-oxazol-3-yl)ethyl)-N-((5-(trifluoromethyl)-2-pyridinyl)methyl)-6-quinolinecarboxamide]: the IC50 is 6860 nM in the assay with HCT116 WT cells and 193 nM in the assay with HCT116 MTAP null cells (HCT116-MTAP null). The Ki at PRMT5/MEP50 [2] is 0.5 nM.
As to `C[C@H](c1ncccn1)N(Cc1ccc(C(F)F)cn1)C(=O)c1ccc2nc(N)c(Br)cc2c1` [Example 410, 2-amino-3-bromo-N-((5-(difluoromethyl)-2-pyridinyl)methyl)-N-((1R)-1-(2-pyrimidinyl)ethyl)-6-quinolinecarboxamide], the IC50 in the assay with HCT116 WT cells came to 5390 nM; in the assay with HCT116 MTAP null cells (HCT116-MTAP null), 88 nM. In addition, on PRMT5/MEP50 [2], the inhibition constant (Ki) is 0.04 nM.
For `Cc1cc2cc(C(=O)N(Cc3ccc(C(F)(F)F)cn3)[C@@H]3COC[C@H]3O)ccc2nc1N` [Example 505, 2-amino-N-((3R,4S)-4-hydroxytetrahydro-3-furanyl)-3-methyl-N-((5-(trifluoromethyl)-2-pyridinyl)methyl)-6-quinolinecarboxamide], the IC50 came out at 10300 nM with HCT116 WT cells and 765 nM in the assay on HCT116 MTAP null cells (HCT116-MTAP null). The Ki at PRMT5/MEP50 [2] was found to be 2.51 nM.
As to `CC(=O)N1CCC(c2ccc(CN(C(=O)c3ccc4nc(N)c(C)cc4c3)[C@H](C)c3ncccn3)nc2)CC1` [Example 552, N-((5-(1-acetyl-4-piperidinyl)-2-pyridinyl)methyl)-2-amino-3-methyl-N-((1R)-1-(2-pyrimidinyl)ethyl)-6-quinolinecarboxamide], the IC50 with HCT116 WT cells amounted to 2550 nM; with HCT116 MTAP null cells (HCT116-MTAP null), 220 nM. Moreover, at PRMT5/MEP50 [2], the Ki was 0.32 nM.
On the same counts, the results for `CC[C@H](c1ncccn1)N(Cc1ccc(C(F)(F)F)nn1)C(=O)c1ccc2nc(N)c(C)cc2c1` (single isomer, unassigned) [Example 495] are 3170 nM, 86 nM and 0.06 nM.
In the case of `CCOc1ccc(CN(C(=O)c2ccc3nc(N)c(C)cc3c2)[C@H](C)c2ncccn2)nn1` [Example 377, 2-amino-N-((6-ethoxy-3-pyridazinyl)methyl)-3-methyl-N-((1R)-1-(2-pyrimidinyl)ethyl)-6-quinolinecarboxamide], the IC50 with HCT116 WT cells was 2560 nM; with HCT116 MTAP null cells (HCT116-MTAP null), 61 nM. Moreover, on PRMT5/MEP50 [2], the inhibition constant (Ki) was found to be 0.07 nM.
As to `Cc1cc2cc(C(=O)N(Cc3ccc(C(F)(F)F)cn3)[C@H](C)c3ncn(C)n3)ccc2nc1N` (single isomer, unassigned) [Example 496], the IC50 in the assay with HCT116 WT cells amounted to 462 nM; in the assay with HCT116 MTAP null cells (HCT116-MTAP null), 23 nM. The Ki at PRMT5/MEP50 [2] stood at 0.17 nM.
Consider `Cc1cc2cc(C(=O)N(Cc3ccc(C(F)(F)F)cn3)[C@H](C)c3cnccn3)cnc2nc1N` [Example 538, 7-amino-6-methyl-N-((1R)-1-(2-pyrazinyl)ethyl)-N-((5-(trifluoromethyl)-2-pyridinyl)methyl)-1,8-naphthyridine-3-carboxamide], for which the half-maximal inhibitory concentration (IC50) is greater than 10000 nM in the assay on HCT116 WT cells and 732 nM in the assay with HCT116 MTAP null cells (HCT116-MTAP null). For the same compound, at PRMT5/MEP50 [2], the Ki stood at 0.68 nM.
As to `COCCN(Cc1ccc(C(F)(F)F)cn1)C(=O)c1ccc2nc(N)c(C)cc2c1` [Example 370, 2-amino-N-(2-methoxyethyl)-3-methyl-N-((5-(trifluoromethyl)-2-pyridinyl)methyl)-6-quinolinecarboxamide], the values for the concentration for half-maximal inhibition (IC50) in the assay with HCT116 WT cells and in the assay on HCT116 MTAP null cells (HCT116-MTAP null) were 5620 nM and 194 nM, respectively. For the same compound, the inhibition constant Ki at PRMT5/MEP50 [2] came to 0.79 nM.
